We go through 16 compounds from patent US8030354B2, “Substituted biphenyl GPR40 modulators” (Amgen Inc., priority 2007, dated 2011).

Each structure is given as a SMILES string.

The target in experiment [1] is T1, GPR40 (Homo sapiens, UniProt O14842). Description: Cell-based aequorin assay (CHO cells stably expressing GPR40 and aequorin). Also on record: expressed in transfected cells; host or cells: CHO cells stably transfected with GPR40 and aequorin. Conditions: activation of human GPR40, CHO cells, 0.01% HSA. The procedure, abridged: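 CHO cells stably co-expressing GPR40 and aequorin, loaded with coelenterazine (1 ug/mL, 2 h, room temperature) in H/HBSS with 20 mM Hepes and 0.01% fatty acid-free HSA. Serially diluted compounds added; luminescence recorded over 20 s. EC50 from dose-response of maximum relative light units.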

Experiment [2] deals with T1, GPR40. Description: Inositol phosphate accumulation assay (A9_GPR40 cells). Conditions: inositol phosphate assay, A9_GPR40 cells, 1 hour; read-out: IP3 EC50. Also on record: expressed in transfected cells; host or cells: CHO cells stably transfected with GPR40 and aequorin. The experiment is classed as cell-based. On the procedure: Briefly, the Aequorin assays were performed on doubly stable CHO cells expressing GPR40 and Aequorin DNA. […] The luminescence was recorded over a period of 20 seconds with a Microlumat luminometer (Berthold). […] The inositol phosphate assay was performed on an A9 cell line stably transfected with GPR40 (A9_GPR40). The cells were incubated with different concentrations of compounds and [^3H] inositol accumulation was measured after 1 hour.
An A9 cell line stably transfected with GPR40 (A9_GPR40) was used in IP accumulation assays. A9_GPR40 cells were plated in 96-well plates containing 20,000 cells/well in DMEM containing 10% FBS. After the cells attached to the well surface, the media was replaced with inositol free DMEM containing 10% dialyzed FBS and 1 μCi, mL ^3H-inositol and incubated for 16 hours. Compounds were diluted in HBSS/10 mM LiCl containing a desired amount of HSA and added directly to cells. Following 1 hour incubation at 37° C., the media was replaced with 100 μL of 20 mM formic acid to quench the reaction. 50 μL of the extract was then added to 100 μL of SPA beads, incubated overnight, and measured on a TopCount the following day.

T1 sequence (O14842 whole entry): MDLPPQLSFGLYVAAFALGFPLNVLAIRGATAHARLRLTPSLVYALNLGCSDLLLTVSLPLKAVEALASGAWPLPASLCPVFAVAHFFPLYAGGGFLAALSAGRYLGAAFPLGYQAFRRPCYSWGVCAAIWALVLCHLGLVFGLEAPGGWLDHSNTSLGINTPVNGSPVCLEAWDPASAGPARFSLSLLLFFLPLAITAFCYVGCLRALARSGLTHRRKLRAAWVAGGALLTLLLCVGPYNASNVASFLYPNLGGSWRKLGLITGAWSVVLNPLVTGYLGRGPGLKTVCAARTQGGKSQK

A word on the EC50: it is the midpoint of the concentration-response curve. As for `COc1cccc(-c2ccc(COc3cccc([C@@H](CC(=O)O)C4CC4)c3)cc2C(C)(C)C)c1` (single isomer, unassigned) [Example 12, (3S)-3-Cyclopropyl-3-(3-(((2-(1,1-dimethylethyl)-3′-(methyloxy)-1,1′-biphenyl-4-yl)methyl)oxy)phenyl)propanoic acid or (3R)-3-cyclopropyl-3-(3-(((2-(1,1-dimethylethyl)-3′-(methyloxy)-1,1′-biphenyl-4-yl)methyl)oxy)phenyl)propanoic acid], the 50% effective concentration (EC50) in experiment [1] and in experiment [2] was 100 to 1000 nM in each case.

With `COc1ccc(F)c(-c2ccc(COc3cccc(C(C)CC(=O)O)c3)c(F)c2C(C)(C)C)c1` (single isomer, unassigned) [Example 64.10, (3R)-3-(3-(((2-(1,1-Dimethylethyl)-2′,3-difluoro-5′-(methyloxy)-1,1′-biphenyl-4-yl)methyl)oxy)phenyl)butanoic acid or (3S)-3-(3-(((2-(1,1-dimethylethyl)-2′,3-difluoro-5′-(methyloxy)-1,1′-biphenyl-4-yl)methyl)oxy)phenyl)butanoic acid], the concentration for a half-maximal effect (EC50) in experiment [1] and in experiment [2] was 100 to 1000 nM in each case.

`COc1ccc(F)c(-c2ccc(COc3cccc([C@@H](CC(=O)O)CC4CC4)c3)cc2C(O)C(C)(C)C)c1` (single isomer, unassigned) [Example 69.14, (3R)-4-Cyclopropyl-3-(3-(((2′-fluoro-2-(1-hydroxy-2,2-dimethylpropyl)-5′-(methyloxy)-1,1′-biphenyl-4-yl)methyl)oxy)phenyl)butanoic acid or (3S)-4-cyclopropyl-3-(3-(((2′-fluoro-2-(1-hydroxy-2,2-dimethylpropyl)-5′-(methyloxy)-1,1′-biphenyl-4-yl)methyl)oxy)phenyl)butanoic acid]: the half-maximal effective concentration (EC50) in experiment [1] and in experiment [2] was 100 to 1000 nM throughout.

In the case of `COc1ccc(F)c(-c2ccc(COc3cccc(C(CC(=O)O)CC4CC4)c3F)cc2C(F)C(C)(C)C)c1` (single isomer, unassigned) [Example 84.7], the figures for the concentration giving a half-maximal response (EC50) in experiment [1] and in experiment [2] were 10 to 100 nM and under 10 nM, respectively.

For `CCC[C@H](CC(=O)O)c1cccc(OCc2ccc(-c3cc(OC)ccc3F)c([C@H]3CCCC3(C)C)c2)c1` (single isomer, unassigned) [Example 80.4], the 50% effective concentration (EC50) was 100 to 1000 nM in experiment [1] and under 10 nM in experiment [2].

With `COc1cc(-c2ccc(COc3cccc(C(C)(C)CC(=O)O)c3)cc2C2CCCC2(C)C)c(F)cn1` (single isomer, unassigned) [Example 85.4, 3-{3-[3-((S)-2,2-Dimethyl-cyclopentyl)-4-(5-fluoro-2-methoxy-pyridin-4-yl)-benzyloxy]-phenyl}-3-methyl-butyric acid or 3-{3-[3-((R)-2,2-dimethyl-cyclopentyl)-4-(5-fluoro-2-methoxy-pyridin-4-yl)-benzyloxy]-phenyl}-3-methyl-butyric acid], the EC50 in experiment [1] lay within 100 to 1000 nM; in experiment [2], 10 to 100 nM.

Consider `COc1ccc(F)c(-c2ccc(COc3cccc(C(C)(C)CC(=O)O)c3)cc2C2=CCCC2(C)C)c1` [Example 85.2, 3-{3-[2-(5,5-Dimethyl-cyclopent-1-enyl)-2′-fluoro-5′-methoxy-biphenyl-4-ylmethoxy]-phenyl}-3-methyl-butyric acid], for which the half-maximal effective concentration (EC50) in experiment [1] was 100 to 1000 nM; in experiment [2], 10 to 100 nM.

With `COc1ccc(F)c(-c2ccc(COc3cccc([C@H](CC(=O)O)C4CC4)c3)cc2[C@@H]2CCCC2(C)C)c1` (single isomer, unassigned) [Example 97.3], the concentration for a half-maximal effect (EC50) in experiment [1] lay within 100 to 1000 nM; in experiment [2], 10 to 100 nM.

Take `CCC(CC(=O)O)c1cccc(OCc2ccc(-c3cc(OC)ccc3F)c(C3=CCCC3(C)C)c2)c1F` (single isomer, unassigned) [Example 77.1, (3R)-3-(3-(((2-(5,5-Dimethyl-1-cyclopenten-1-yl)-2′-fluoro-5′-(methyloxy)-1,1′-biphenyl-4-yl)methyl)oxy)-2-fluorophenyl)pentanoic acid or (3S)-3-(3-(((2-(5,5-dimethyl-1-cyclopenten-1-yl)-2′-fluoro-5′-(methyloxy)-1,1′-biphenyl-4-yl)methyl)oxy)-2-fluorophenyl)pentanoic acid]: the 50% effective concentration (EC50) in experiment [1] lay within 100 to 1000 nM; in experiment [2], 10 to 100 nM.

In the case of `CCC(C)(C)[C@H](OC)c1cc(COc2cccc([C@@H](CC(=O)O)C3CC3)c2)ccc1-c1cc(OC)ccc1F` (single isomer, unassigned) [Example 66.62], the figures for the EC50 in experiment [1] and in experiment [2] were 10 to 100 nM and under 10 nM, respectively.

Consider `COc1ccc(F)c(-c2ccc(COc3cccc(C(C)CC(=O)O)c3)cc2CCC2CCCCC2)c1` (single isomer, unassigned) [Example 64.15, (3R)-3-(3-(((2-(2-Cyclohexylethyl)-2′-fluoro-5′-(methyloxy)-1,1′-biphenyl-4-yl)methyl)oxy)phenyl)butanoic acid or (3S)-3-(3-(((2-(2-cyclohexylethyl)-2′-fluoro-5′-(methyloxy)-1,1′-biphenyl-4-yl)methyl)oxy)phenyl)butanoic acid], for which the values for the EC50 in experiment [1] and in experiment [2] were 100 to 1000 nM and 10 to 100 nM, respectively.

For `COCCO[C@H](c1cc(COc2cccc([C@@H](CC(=O)O)CC3CC3)c2)ccc1-c1cc(OC)ccc1F)C(C)(C)C` (single isomer, unassigned) [Example 69.23], the half-maximal effective concentration (EC50) was 10 to 100 nM in experiment [1] and under 10 nM in experiment [2].

Regarding `COc1ccc(F)c(-c2ccc(COc3cc(CCC(=O)O)ccn3)cc2C2=CCCC2(C)C)c1` [Example 95, 3-(2-(((2-(5,5-Dimethyl-1-cyclopenten-1-yl)-2′-fluoro-5′-(methyloxy)-1,1′-biphenyl-4-yl)methyl)oxy)-4-pyridinyl)propanoic acid], the concentration for a half-maximal effect (EC50) in experiment [1] and in experiment [2] was 100 to 1000 nM in each case.

`CCCC(CC(=O)O)c1cccc(OCc2ccc(-c3cc(OC)ccc3F)c(/C=C/C(C)(C)C)c2)c1` (single isomer, unassigned) [Example 67.4, (3R)-3-(3-(((2-((1E)-3,3-Dimethyl-1-butenyl)-2′-fluoro-5′-(methyloxy)-1,1′-biphenyl-4-yl)methyl)oxy)phenyl)hexanoic acid or (3S)-3-(3-(((2-((1E)-3,3-dimethyl-1-butenyl)-2′-fluoro-5′-(methyloxy)-1,1′-biphenyl-4-yl)methyl)oxy)phenyl)hexanoic acid]: the EC50 in experiment [1] lay in the range of 100 to 1000 nM.

`CCCCOc1cc(COc2cccc(C(CCC(F)(F)F)CC(=O)O)c2)ccc1-c1cc(OC)ccc1F` (single isomer, unassigned) [Example 68.2, (3R)-3-(3-(((2-(Butyloxy)-2′-fluoro-5′-(methyloxy)-1,1′-biphenyl-4-yl)methyl)oxy)phenyl)-6,6,6-trifluorohexanoic acid or (3S)-3-(3-(((2-(butyloxy)-2′-fluoro-5′-(methyloxy)-1,1′-biphenyl-4-yl)methyl)oxy)phenyl)-6,6,6-trifluorohexanoic acid]: in experiment [1], the EC50 fell in the range of 1000 to 10000 nM.

With `COc1ccc(F)c(-c2cc(C)c(COc3cccc(C(C)CC(=O)O)c3)cc2C(C)(C)C)c1` (single isomer, unassigned) [Example 64.3, (3R)-3-(3-(((2-(1,1-Dimethylethyl)-2′-fluoro-5-methyl-5′-(methyloxy)-1,1′-biphenyl-4-yl)methyl)oxy)phenyl)butanoic acid or (3S)-3-(3-(((2-(1,1-dimethylethyl)-2′-fluoro-5-methyl-5′-(methyloxy)-1,1′-biphenyl-4-yl)methyl)oxy)phenyl)butanoic acid], the EC50 in experiment [1] was in the range of 1000 to 10000 nM.
